# Results as given in patent US4851519A, “Pyrimidine derivatives” (Hoffmann-La Roche Inc., priority 1986, dated 1989).
# Molecular target: herpes simplex virus type 2 (HSV-2) thymidine kinase (Human herpesvirus 2, UniProt P04407)
# Assay: inhibition of herpes simplex virus type 2 (HSV-2) thymidine kinase in vitro
# Format: biochemical
# Conditions: not given
# Experimental: In this test, the assay mixture contains […] Tris-HCl, pH 8, 5 mM magnesium chloride, 5 mM ATP, 0.3 μM ^3 H-thymidine (50 Ci/mmol), suitably diluted thymidine kinase extract and various concentrations of a compound of formula I or a tautomer thereof in a total volume of 100 μl. Assays are incubated at 37° C. for 30 minutes and the reaction is terminated by immersion in a boiling water bath for 2 minutes. 85 μl aliquots from each assay are then dried on to DEAE-cellulose paper discs and the unphosphorylated ^3 H-thymidine is removed by washing in 4 mM ammonium formate. The radioactivity remaining bound to the discs is then measured by scintillation spectrophotometry. The degree of inhibition at each concentration of compound of formula I or tautomer thereof is expressed as a percentage of the control reaction (100%) after substracting a measured blank value which represents the amount of radioactivity bound to the disc from a reaction containing heat inactivated enzymes. the IC50 value, namely, the concentration of compound of formula I or tautomer thereof which inhibits enzyme activity by 50%, is then calculated. The results obtained with representative compounds of formula I are complied in the following Table: […]
# Sequence of herpes simplex virus type 2 (HSV-2) thymidine kinase (P04407 whole entry): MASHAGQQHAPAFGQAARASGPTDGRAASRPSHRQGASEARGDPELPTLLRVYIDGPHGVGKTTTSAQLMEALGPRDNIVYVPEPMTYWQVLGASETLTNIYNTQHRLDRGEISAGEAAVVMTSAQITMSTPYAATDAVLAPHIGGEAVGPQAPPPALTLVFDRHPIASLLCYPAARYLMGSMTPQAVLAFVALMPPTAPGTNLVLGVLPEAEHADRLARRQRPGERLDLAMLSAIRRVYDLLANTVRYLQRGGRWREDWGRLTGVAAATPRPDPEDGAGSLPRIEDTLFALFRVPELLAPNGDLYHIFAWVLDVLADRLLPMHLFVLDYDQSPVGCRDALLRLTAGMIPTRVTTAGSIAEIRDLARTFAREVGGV
row,SMILES,IC50 [nM]
1,"CCc1cn([C@H]2C[C@H](O)[C@@H](CNC(=O)Cc3c(Cl)cccc3Cl)O2)c(=O)[nH]c1=O [Compound B, 5'-[2-(2,6-dichlorophenyl)acetamido]-2',5'-dideoxy-5-ethyluridine]",3

# Same assay, conditions: HSV-2 thymidine kinase extract; 0.3 μM 3H-thymidine, 5 mM ATP, pH 8, 37° C., 30 minutes; read-out: IC50 (concentration which inhibits enzyme activity by 50%)
row,IC50 [nM],SMILES
1,1.3,"CCc1cn([C@H]2C[C@H](O)[C@@H](CNC(=O)C(C)Oc3cc(Cl)c(Cl)cc3Cl)O2)c(=O)[nH]c1=O (mixture of isomers) [Compound G, 5'-[2(RS)-(2,4,5-trichlorophenoxy)propionamido]-2',5'-dideoxy-5-ethyluridine]"
2,4.7,"CCc1cn([C@H]2C[C@H](O)[C@@H](CNC(=O)C(Oc3ccc(Cl)cc3Cl)c3ccccc3)O2)c(=O)[nH]c1=O (mixture of isomers) [Compound I, 5'-[2(RS)-(2,4-dichlorophenoxy)-2-phenylacetamido]-2',5'-dideoxy-5-ethyluridine]"
3,1.2,"CCc1cn([C@H]2C[C@H](O)[C@@H](CNC(=O)C(C)Oc3cc(OC)c(Cl)cc3Cl)O2)c(=O)[nH]c1=O (mixture of isomers) [Compound J, 5'-[2(RS)-(2,4-dichloro-5-methoxyphenoxy)propionamido]-2',5'-dideoxy-5-ethyluridine]"
4,3.5,"CCCc1cn([C@H]2C[C@H](O)[C@@H](CNC(=O)C(C)Oc3ccc(Cl)cc3Cl)O2)c(=O)[nH]c1=O (mixture of isomers) [Compound K, 5'-[2(RS)-(2,4-dichlorophenoxy)propionamido]-2',5'-dideoxy-5-propyluridine]"
5,2.7,"CCc1cn([C@H]2C[C@H](O)[C@@H](CNC(=O)C(C)Oc3ccc(Cl)cc3[N+](=O)[O-])O2)c(=O)[nH]c1=O (mixture of isomers) [Compound H, 5'-[2(RS)-(4-chloro-2-nitrophenoxy)propionamido]-2',5'-dideoxy-5-ethyluridine]"

# Further lines, the compound ahead of its results:
row,SMILES,IC50 [nM]
1,"CCc1cn([C@H]2C[C@H](O)[C@@H](CNC(=O)Cc3ccccc3Br)O2)c(=O)[nH]c1=O [Compound A, 5'-[2-(2-bromophenyl)acetamido]-2',5'-dideoxy-5-ethyluridine]",20
2,"CCc1cn([C@H]2C[C@H](O)[C@@H](CNC(=O)C(C)Oc3ccc(Cl)cc3Cl)O2)c(=O)[nH]c1=O (mixture of isomers) [Compound C, 5'-[2(RS)-(2,4-dichlorophenoxy)propionamido]-2',5'-dideoxy-5-ethyluridine]",3.7
3,"CCc1cn([C@@H]2O[C@H](CNC(=O)C(C)Oc3ccc(Cl)cc3Cl)[C@@H](O)[C@@H]2F)c(=O)[nH]c1=O (mixture of isomers) [Compound F, 1-[5-[2-(RS)-(2,4-dichlorophenoxy)propionamido]-2,5-dideoxy-2-fluoro-β-D-arabinofuranosyl]-5-ethyluracil]",4
4,"CCc1cn([C@H]2C[C@H](O)[C@@H](CNC(=O)Cc3ccc(-c4ccccc4)cc3)O2)c(=O)[nH]c1=O [Compound D, 5'-[2-(4-biphenylyl)acetamido]-2',5'-dideoxy-5-ethyluridine]",70
5,"CCc1cn([C@H]2C[C@H](O)[C@@H](CNC(=O)C(C)Oc3ccccc3-c3ccccc3)O2)c(=O)[nH]c1=O (mixture of isomers) [Compound E, 2',5'-dideoxy-5-ethyl-5'-[2(RS)-(2-phenylphenoxy)propionamido]uridine]",5
